Test results taken from patent US9353149B2, “Compounds, compositions and methods for the treatment of diseases through inhibiting TGF-β activity” (Southern Research Institute, priority 2013, dated 2016).
Marks after values point to notes of the source that are not given here. Residues, ends and D or L forms follow the SMILES beside them.

Experiments:
[1] = target: Recombinant latent TGF-beta incubated with TSP1 (Homo sapiens, UniProt P07996); test: TSP1 activation of recombinant latent TGF-beta, ELISA specific for active TGF-beta; type: biochemical; conditions: latent TGF-beta 500 pM, TSP1 48 nM, compounds 1-100 pM; read-out: Activity (IC 50)
Sequence of Recombinant latent TGF-beta incubated with TSP1 (P07996 19-1170): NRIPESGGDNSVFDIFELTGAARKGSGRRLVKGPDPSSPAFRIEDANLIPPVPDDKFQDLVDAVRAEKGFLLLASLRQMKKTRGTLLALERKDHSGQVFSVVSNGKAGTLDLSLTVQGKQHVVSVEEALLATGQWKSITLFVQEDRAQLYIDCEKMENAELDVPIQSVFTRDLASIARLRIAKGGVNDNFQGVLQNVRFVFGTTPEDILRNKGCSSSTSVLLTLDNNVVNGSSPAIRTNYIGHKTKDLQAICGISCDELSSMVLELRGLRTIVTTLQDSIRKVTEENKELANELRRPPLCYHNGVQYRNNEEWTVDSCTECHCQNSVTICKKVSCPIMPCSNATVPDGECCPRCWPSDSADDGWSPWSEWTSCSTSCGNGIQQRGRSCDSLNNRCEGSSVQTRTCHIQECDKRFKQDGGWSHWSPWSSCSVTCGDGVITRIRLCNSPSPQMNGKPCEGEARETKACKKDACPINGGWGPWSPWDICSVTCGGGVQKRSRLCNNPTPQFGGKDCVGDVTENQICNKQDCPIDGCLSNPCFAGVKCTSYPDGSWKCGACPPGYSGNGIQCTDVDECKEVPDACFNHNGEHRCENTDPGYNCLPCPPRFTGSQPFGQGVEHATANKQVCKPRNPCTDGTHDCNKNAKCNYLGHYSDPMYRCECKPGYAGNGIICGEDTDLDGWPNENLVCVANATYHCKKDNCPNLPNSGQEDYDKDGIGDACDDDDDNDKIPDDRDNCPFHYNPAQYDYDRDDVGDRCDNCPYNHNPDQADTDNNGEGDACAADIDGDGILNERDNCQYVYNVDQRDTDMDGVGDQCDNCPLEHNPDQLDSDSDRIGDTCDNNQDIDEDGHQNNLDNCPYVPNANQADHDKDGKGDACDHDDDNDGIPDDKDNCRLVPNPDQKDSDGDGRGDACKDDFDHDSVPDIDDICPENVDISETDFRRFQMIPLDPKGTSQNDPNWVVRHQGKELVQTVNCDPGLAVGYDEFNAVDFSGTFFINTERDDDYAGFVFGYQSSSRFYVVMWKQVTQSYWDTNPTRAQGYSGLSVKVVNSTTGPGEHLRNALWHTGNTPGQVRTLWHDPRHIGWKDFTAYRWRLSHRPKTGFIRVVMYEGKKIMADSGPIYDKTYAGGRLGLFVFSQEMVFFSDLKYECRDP
Method: The assay for the IC 50 (Activity) data in Table 1 was as follows: Recombinant latent TGF-beta (500 pM) is incubated with TSP1 (48 nM) in the absence or presence of increasing concentrations of the identified compounds (1-100 pM). TGF-beta activity in the samples was measured using an ELISA specific for active TGF-beta (R&D Systems). IC50 values were calculated from the curves.

[2] = test system: human CAG-heparanase myeloma cells; test: Systemic SCID-CAG-heparanase multiple myeloma model; type: in vivo, Male SCID mice; conditions: for Human serum κ / IL-6 / Serum TRAcP 5b: osmotic pump, 4 weeks
Method: The Table 2 below provides an analysis of the systemic SCID-CAG-heparanase model treated with increasing doses of Compound No 1 according to the present invention.
Table 2: Analyses of the Systemic SCID-CAG-Heparanase Model Treated with Increasing Doses of Compound No 1
Male SCID mice were injected via tail vein with 1.7×10^6 CAG-hpse cells and tumors allowed to establish over 2 weeks. Groups were randomized according to serum human kappa levels (n=15/group). Treatments were initiated at 2 weeks and continued for 4 weeks. Mice were treated with either saline or 0.3, 3.0, or 30 mg/kg/day of Compound No 1 peptide delivered by osmotic pumps. Pumps were replaced after 2 weeks and fresh peptide and pumps installed. *p<0.05 vs saline.

[3] = Plasma pharmacokinetics after single intravenous and oral administration; type: in vivo, male Swiss Albino mice
[4] = Plasma stability half-life; type: in vitro ADME
Description: Peptides comprising the amino acid sequence LSKL, including the tetrapeptide LSKL, for inhibiting TGF-β activity and the use of these peptides and certain functional derivatives thereof for the treatment of kidney disease are described in U.S. Pat. No. 6,384,189 and U.S. Pat. No. 6,458,767. It is desirable to employ small molecules such as, e.g., LSKL because they are easier to synthesize and, thus, less costly. […] Accordingly, there is a need for small molecules which affect the activation of TGF-β and which also have an extended plasma stability half-life.

TSP1-TGF-β activation = conditions: cited from earlier work
[5] = male, Swiss Albino, mouse, iv, 1 mg/kg
[6] = male, Swiss Albino, mouse, po, 3 mg/kg

With `CC(=O)NCCCC[C@H](NC(=O)[C@H](CO)NC(C)=O)C(=O)N[C@@H](CC(C)C)C(N)=O` [Compound 99] (Ac-Ser-Lys(Ac)-Leu-NH2) the IC50 [1] was 0.1 to 0.5 nM.

With `CC(=O)N[C@@H](CO)C(=O)N[C@@H](CCCCN)C(=O)N[C@@H](CC1CC1)C(N)=O` [Compound 37] (HELM PEPTIDE1{[ac].S.K.[O=C([C@H](CC1CC1)N[*:1])[*:2]].[am]}$$$$V2.0) the IC50 [1] was 0.05 to 0.1 nM.

In the case of `CC(=O)N[C@@H](CO)C(=O)N[C@@H](CCCCN)C(=O)N[C@@H](CC(C)C)C(N)=O` [Compound 1] (Ac-Ser-Lys-Leu-NH2), the IC50 [1] is reported as 0.001 to 0.01 nM, the “Human serum κ” value ([2]; 0.3 mg/kg/day) is reported as 5134 ± 696 ng/mL and the IL-6 ([2]; 0.3 mg/kg/day) is reported as 70.2 ± 4.7 pg/mL. For the same compound, the “Serum TRAcP 5b” value ([2]; 0.3 mg/kg/day) was 3.6 +/− 0.28 U/L, the “Human serum κ” value ([2]; 3.0 mg/kg/day) was 3465 +/− 422* ng/ml and the IL-6 ([2]; 3.0 mg/kg/day) was 40.0 +/− 4.2* pg/ml. The “Serum TRAcP 5b” value ([2]; 3.0 mg/kg/day) was 2.8 +/− 0.15* U/L, the “tibial bone loss (FIG. 1)” value ([2]; 30 mg/kg dose, SCID/CAG-hpse MM model) was “reducing tibial bone loss” and the “TRAP^+ OC/mm BS” value ([2]; 30 mg/kg/day) was 1.0 +/− 0.2*. The “p-Smad 2 IHC in bone marrow” value ([2]; 30 mg/kg/day) was 2390 +/− 472* arbitrary units, the “μCT (tibia) BV/TV” value ([2]; 30 mg/kg/day, n = 4) was 0.13 +/− 0.01* and the “μCT (tibia) TbN” value ([2]; 30 mg/kg/day, n = 4) was 4.03 +/− 0.28*. The “μCT (tibia) TbSp” value ([2]; 30 mg/kg/day, n = 4) was 0.25 +/− 0.02*, the “Human serum κ” value ([2]; 30 mg/kg/day) was 2593 +/− 443* ng/ml and the IL-6 ([2]; 30 mg/kg/day) was 31.8 +/− 4.0* pg/ml. The “Serum TRAcP 5b” value ([2]; 30 mg/kg/day) was 2.5 +/− 0.13* U/L, the Co ([3]; i.v., 1 mg/kg) was 1025.73 ng/mL and the AUC(0-inf) [3, 5] was 1380 ng·h/mL. For the same compound, the AUC(0-t) [3, 5] was 1210 ng·h/mL, the clearance [3, 5] was 12.1 mL/min/kg and the half-life [3, 5] was 637 min. For the same compound, the Vd ([3]; male, Swiss Albino, mouse, iv, 1 mg/kg, read-out: Vss) was 6.31 L/kg, the bioavailability ([3]; male, Swiss Albino, mouse, oral 3 mg/kg vs i.v. 1 mg/kg) was 24% and the AUC(0-inf) [3, 6] was 1070 ng·h/mL. The AUC(0-t) [3, 6] was 875 ng·h/mL, the Cmax [3, 6] was 208 ng/mL and the Tmax [3, 6] was 30 min.

For `CNC(=O)[C@H](CC(C)C)NC(=O)[C@@H](CCCCN)NC(=O)[C@@H](NC(C)=O)C(C)O` (some centres unmarked) [Compound 14] (HELM PEPTIDE1{[ac].[CC(O)[C@H](N[*:1])C(=O)[*:2]].[dK].L.[CN[*:1]]}$$$$V2.0), the IC50 [1] was 0.001 to 0.01 nM.

Compound `CC(=O)N[C@@H](CO)C(=O)N[C@@H](CCCCN)C(=O)N(C)[C@@H](CC(C)C)C(N)=O` [Compound 10] (HELM PEPTIDE1{[ac].S.K.[meL].[am]}$$$$V2.0) has an IC50 [1] of 0.1 to 0.5 nM.

Work on `CC(=O)N[C@H](C(=O)N[C@@H](CCCCN)C(=O)N[C@@H](CC(C)C)C(N)=O)C(C)O` (some centres unmarked) [Compound 2] (HELM PEPTIDE1{[ac].[CC(O)[C@H](N[*:1])C(=O)[*:2]].K.L.[am]}$$$$V2.0) yielded an IC50 [1] of 0.05 to 0.1 nM.

`CNC(=O)[C@H](CC(C)C)NC(=O)[C@H](CCCCN)NC(=O)[C@H](CO)NC(C)=O` [Compound 13] (HELM PEPTIDE1{[ac].S.K.L.[CN[*:1]]}$$$$V2.0) showed an IC50 [1] of 0.05 to 0.1 nM.

With `COC[C@H](NC(C)=O)C(=O)N[C@@H](CCCCN)C(=O)N[C@@H](CC(C)C)C(N)=O` [Compound 100] (Ac-Ser(Me)-Lys-Leu-NH2) the IC50 [1] was 0.1 to 0.5 nM.

Compound `CC(=O)N[C@H](CO)C(=O)N[C@@H](CCCCN)C(=O)N[C@@H](CC(C)C)C(N)=O` [Compound 94] (HELM PEPTIDE1{[ac].[dS].K.L.[am]}$$$$V2.0) has an IC50 [1] of 0.1 to 0.5 nM.

Compound `CC(=O)N[C@@H](CO)C(=O)N[C@@H](CCCCN)C(=O)N[C@@H](CC(C)C)C(=O)N(C)C` [Compound 97] (HELM PEPTIDE1{[ac].S.K.L.[CN(C)[*:1]]}$$$$V2.0) has an IC50 [1] of 0.1 to 0.5 nM.

`CC(=O)N[C@@H](CO)C(=O)N[C@@H](CCCCN(C)C)C(=O)N[C@@H](CC(C)C)C(N)=O` [Compound 22] (HELM PEPTIDE1{[ac].S.[CN(C)CCCC[C@H](N[*:1])C(=O)[*:2]].L.[am]}$$$$V2.0) gave an IC50 [1] of 0.1 to 0.5 nM.

In the case of `CC(C)C[C@H](NC(=O)[C@H](CCCCN)NC(=O)[C@H](CO)NC(=O)[C@@H](N)CC(C)C)C(=O)O` [LSKL, leucine-serine-lysine-leucine] (H-LSKL-OH; N-terminus and C-terminus assumed), the half-life [4] is listed as 2.1 min, the necropsy findings (TSP1-TGF-β activation; after 15 weeks of 30 mg/kg i.p., 3 times weekly) is listed as “no inflammation, no tumors in all major organs, and no impairment of wound healing” and the “Smad signaling and dermal wound healing” value (TSP1-TGF-β activation; systemic administration, diabetic mice) is listed as “did not reduce Smad signaling or impair dermal wound healing”.

`CC(=O)N[C@@H](CO)C(=O)N[C@H](CCCCN)C(=O)N[C@@H](CC(C)C)C(N)=O` [Compound 95] (HELM PEPTIDE1{[ac].S.[dK].L.[am]}$$$$V2.0) showed an IC50 [1] of 0.001 to 0.01 nM.

Work on `CNCCCC[C@H](NC(=O)[C@H](CO)NC(C)=O)C(=O)N[C@@H](CC(C)C)C(N)=O` [Compound 98] (HELM PEPTIDE1{[ac].S.[CNCCCC[C@H](N[*:1])C(=O)[*:2]].L.[am]}$$$$V2.0) yielded an IC50 [1] of 0.1 to 0.5 nM.

Work on `CCC(=O)N[C@@H](CO)C(=O)N[C@@H](CCCCN)C(=O)N[C@@H](CC(C)C)C(N)=O` [Compound 101] (HELM PEPTIDE1{[CCC(=O)[*:2]].S.K.L.[am]}$$$$V2.0) yielded an IC50 [1] of 0.1 to 0.5 nM.

Work on `CC(=O)N[C@@H](CO)C(=O)N[C@@H](CCCCN)C(=O)N[C@H](CC(C)C)C(N)=O` [Compound 96] (HELM PEPTIDE1{[ac].S.K.[dL].[am]}$$$$V2.0) yielded an IC50 [1] of 0.05 to 0.1 nM.
